Source: publication PMC7180728, “Novel Anthraquinone Compounds Inhibit Colon Cancer Cell Proliferation via the Reactive Oxygen Species/JNK Pathway” (Molecules, 2020)
Converted amounts (≈) assume the structure as drawn.

Columns and labels:
[1] = tested on: HCT116 cells; experiment: MTT cell viability with or without zVAD-FMK; format: cell-based, human; conditions: Homo sapiens, HCT-116, 8a 20 μg/mL alone, 24 h
Text: Caspases represent a key molecular group in the regulation of apoptosis. In caspases, there is an upstream and downstream relationship between the initiator of apoptosis and executioner. Caspase 3 is one of the key executers of apoptosis, as it is either partially or totally responsible for the proteolytic cleavage of many key proteins. For example, when caspase 9 is activated, it activates caspase 3, which ultimately triggers cell apoptosis. After detecting the expression of the corresponding Bcl-2 family proteins after 8a treatment by western blotting, we went on to detect the expression levels of PARP, caspase 9, cleaved caspase 9, caspase 3, and cleaved caspase 3 proteins. […] After 24 h of treatment with zVAD-FMK, cell viability is 93%.
Figure 7 Effect of 8a on apoptosis-related protein expression. […] PARP, caspase 3, cleaved caspase 3, caspase 9, cleaved caspase 9, Bcl-2, phosphorylated Bcl-2, Bcl-XL, phosphorylated Bcl-xL and Bax were detected by western blot analysis; β-actin was used as a loading control in each lane. Representative data of three independent experiments are shown; (C) and (D) Grayscale analysis of the relative expression of apoptosis-related proteins detected by Western blotting. […] (E) Cells were exposed to 8a (20 μg/mL) and/or zVAD-FMK ([…]) for 24 h, and cell viability was measured by MTT assay. […]

[2] = tested on: HepG2; experiment: MTT cell proliferation assay, HepG2; format: cell-based; conditions: Homo sapiens, HepG2 liver cancer, 48 h
Procedure: (§1) The effects of the synthesized amide anthraquinone derivatives on the proliferative activity of eight human cancerous cell lines (EC9706, MCF-7, SGC-7901, HepG2, QBC939, HeLa, HCT116 and SW480) in addition to two normal human cell lines (colorectal FHC and liver HL7702) were evaluated using the standard MTT assay.
(§2) The human esophageal cancer cell line EC9706 was obtained from Cancer Hospital and Institute by Prof. Ming Rong Wang, Chinese Academy Medical of Sciences. The human colorectal carcinoma cell lines HCT116 and SW480, hepatoma cell line HepG2, cervical carcinoma cell line HeLa, breast cancer cell line MCF-7, gastric cancer cell line SGC-7901, cholangiocarcinoma cell line QBC939, normal fetal colon cell line FHC and liver cell line HL-7702 were obtained from the Cell Bank of the Shanghai Chinese Academy of Sciences. All cells were cultured in RPMI 1640 medium containing 100 U/mL penicillin and streptomycin and 10% fetal bovine serum and maintained at 37°C under a 5% CO2 atmosphere.
(§3) We analyzed the inhibitory effects of eight anthraquinone-amino acid derivatives on the proliferation of eight tumor cell lines and two normal cell lines in vitro using MTT assays. Cells were added to a 96-well plate with (5,000 cells per well in 100 µL RPMI-1640 medium). Cells were treated with different concentrations (10–100 μg/mL) of 8a–8h for 48 h and then incubated with 20 μL MTT (5 mg/mL) for another 4 h at 37°C. DMSO (150 μL) was then added to each well to dissolve the formazan crystals. The absorbance of each well was read at 490 nm on a microtiter plate ELISA reader. The mean values were obtained from a minimum of three parallel experiments. IC50 values were calculated.

[3] = tested on: QBC939; experiment: MTT cell proliferation assay, QBC939; format: cell-based; conditions: Homo sapiens, QBC939 cholangiocarcinoma, 48 h
Procedure: as §1, §2, §3

[4] = tested on: HCT116 cells; experiment: Annexin V/PI apoptosis assay by flow cytometry; format: cell-based, human; conditions: 24 h, control 0.06%
Procedure: Natural anthraquinones, such as rubiadin, physcion, emodin and soranjidiol, have been reported to induce apoptosis in tumor cells. Therefore, after detecting the effect of 8a on tumor cell proliferation, we investigated correlation between the anticancer activity of compound 8a and apoptosis. The effects of compound 8a treatment on HCT116 cell apoptosis were detected by flow cytometry following Annexin V/PI staining.
HCT116 cells were added to a 6-well plate (5 × 10^6/well). After attachment, the cells were treated with 8a for 24 h. Then, the cells were collected and centrifuged (10,000 g × 5 min). Cells were washed once with 1 mL of PBS. Cells were suspended in 500 μL binding buffer (containing 5 μL Annexin V-FITC and 1 μL propidium iodide [PI]) and incubated for 30 min in the dark. Apoptosis cells were detected by flow cytometry (FACSCalibur, BD, The United States).

[5] = tested on: HCT116; experiment: MTT cell proliferation assay, HCT116; format: cell-based, human; conditions: Homo sapiens, HCT-116, HCT116 colon cancer, 48 h
Procedure: as §1, §2, §3

[6] = tested on: EC9708; experiment: MTT cell proliferation assay, EC9706 (Table 1: EC9708); format: cell-based; conditions: Homo sapiens, EC9708 esophageal cancer, 48 h
Procedure: as §1, §2, §3

Compound CC(C)CC(NC(=O)c1ccc2c(c1[N+](=O)[O-])C(=O)c1ccccc1C2=O)C(=O)O (centres unmarked) [Compound 8a, N-[(9,10-dihydro-1-nitro-9,10-dioxo-2-anthracenyl)carbonyl-leucine]] has a viability at 20 µg/mL [1] of 38%, an IC50 [2] of 44.65 ± 0.03 µg/mL (≈ 109 µM) and an IC50 [3] of 43.13 ± 0.05 µg/mL (≈ 105 µM). It also gave a rate of apoptosis ([4]; 10 μg/mL) of 11.24%, a rate of apoptosis ([4]; 20 μg/mL) of 18.97% and a rate of apoptosis ([4]; 40 μg/mL) of 26.94%. For the same compound, the IC50 [5] was 17.8 ± 0.03 µg/mL (≈ 43.4 µM) and the IC50 [6] was 44 ± 0.61 µg/mL (≈ 107 µM).
